Source: US9212182B2, “Bicyclic sulfonamide compounds as sodium channel inhibitors” (AMGEN INC., priority 2013, dated 2015)
pIC50: −log10 of the molar value.

What follows are molecules tested against Nav 1.7 (Homo sapiens (Human), UniProt Q15858) (assay: in-vitro Nav 1.7 PX (IC50)). Details: not given.
Format: cell-based

Sequence of Nav 1.7 (Q15858 whole entry): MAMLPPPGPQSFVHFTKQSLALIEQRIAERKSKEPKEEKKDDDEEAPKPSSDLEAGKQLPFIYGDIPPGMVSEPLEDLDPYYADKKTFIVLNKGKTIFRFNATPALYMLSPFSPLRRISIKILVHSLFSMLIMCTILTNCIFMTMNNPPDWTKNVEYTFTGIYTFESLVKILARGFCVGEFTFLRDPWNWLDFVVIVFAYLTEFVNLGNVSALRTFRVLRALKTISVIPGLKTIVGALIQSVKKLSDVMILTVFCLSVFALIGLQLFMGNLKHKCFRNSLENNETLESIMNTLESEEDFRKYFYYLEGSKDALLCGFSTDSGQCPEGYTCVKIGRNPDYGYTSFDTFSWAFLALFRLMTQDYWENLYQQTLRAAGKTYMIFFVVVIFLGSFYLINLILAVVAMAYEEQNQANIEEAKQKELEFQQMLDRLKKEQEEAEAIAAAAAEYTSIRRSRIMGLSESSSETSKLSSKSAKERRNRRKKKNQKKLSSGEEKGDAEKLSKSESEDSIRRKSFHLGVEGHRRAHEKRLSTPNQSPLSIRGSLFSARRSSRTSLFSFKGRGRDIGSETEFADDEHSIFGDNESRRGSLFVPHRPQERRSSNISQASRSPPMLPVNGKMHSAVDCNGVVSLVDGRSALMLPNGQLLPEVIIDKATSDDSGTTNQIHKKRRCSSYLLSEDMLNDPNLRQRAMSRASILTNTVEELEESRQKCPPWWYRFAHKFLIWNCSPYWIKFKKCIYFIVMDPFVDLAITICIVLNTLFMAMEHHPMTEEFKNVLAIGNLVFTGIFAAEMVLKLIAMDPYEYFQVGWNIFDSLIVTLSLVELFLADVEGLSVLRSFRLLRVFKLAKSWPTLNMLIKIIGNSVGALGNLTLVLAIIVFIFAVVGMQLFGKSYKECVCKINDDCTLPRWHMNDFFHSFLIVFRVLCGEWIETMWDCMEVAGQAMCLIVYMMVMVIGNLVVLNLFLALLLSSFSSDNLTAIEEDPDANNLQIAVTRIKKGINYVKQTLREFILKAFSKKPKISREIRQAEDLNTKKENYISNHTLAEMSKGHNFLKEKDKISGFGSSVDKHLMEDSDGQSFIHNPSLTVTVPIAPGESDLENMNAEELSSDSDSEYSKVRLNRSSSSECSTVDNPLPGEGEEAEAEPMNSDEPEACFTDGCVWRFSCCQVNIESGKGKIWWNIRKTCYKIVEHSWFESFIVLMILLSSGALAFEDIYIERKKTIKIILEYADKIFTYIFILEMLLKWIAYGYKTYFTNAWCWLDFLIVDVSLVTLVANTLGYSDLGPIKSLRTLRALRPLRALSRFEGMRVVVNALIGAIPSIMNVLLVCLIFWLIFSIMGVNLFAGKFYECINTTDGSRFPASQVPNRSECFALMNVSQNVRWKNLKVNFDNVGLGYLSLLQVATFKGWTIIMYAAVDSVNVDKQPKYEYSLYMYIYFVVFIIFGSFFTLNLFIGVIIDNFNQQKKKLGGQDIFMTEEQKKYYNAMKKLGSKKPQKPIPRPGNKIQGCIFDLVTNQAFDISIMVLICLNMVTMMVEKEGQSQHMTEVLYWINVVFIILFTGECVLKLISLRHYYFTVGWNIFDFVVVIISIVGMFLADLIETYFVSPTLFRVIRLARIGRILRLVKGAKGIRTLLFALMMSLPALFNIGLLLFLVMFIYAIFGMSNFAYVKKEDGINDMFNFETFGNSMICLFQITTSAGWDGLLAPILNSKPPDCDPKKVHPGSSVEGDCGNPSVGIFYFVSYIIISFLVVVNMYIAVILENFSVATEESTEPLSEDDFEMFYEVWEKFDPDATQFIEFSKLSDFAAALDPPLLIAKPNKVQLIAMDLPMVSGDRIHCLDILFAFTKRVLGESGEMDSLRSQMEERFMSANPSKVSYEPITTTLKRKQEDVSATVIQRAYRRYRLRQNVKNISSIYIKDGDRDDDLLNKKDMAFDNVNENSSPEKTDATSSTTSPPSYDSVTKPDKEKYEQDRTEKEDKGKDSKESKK

pIC50	SMILES
6.31	COc1cc(-c2cccc(F)c2)c(F)cc1-n1c(=O)cc(C)c2cc(S(=O)(=O)Nc3ccon3)ccc21 (atropisomer, axis not shown; (P)) [Example 572, (P)-1-(2,3′-difluoro-5-methoxy-4-biphenylyl)-N-3-isoxazolyl-4-methyl-2-oxo-1,2-dihydro-6-quinolinesulfonamide]
6.10	COc1cc(-c2cccc(Cl)c2)c(C)cc1-n1c(=O)ccc2cc(S(=O)(=O)Nc3ccon3)ccc21 (atropisomer, axis not shown; (M)) [Example 313, (M)-1-(3′-chloro-5-methoxy-2-methyl-4-biphenylyl)-N-3-isoxazolyl-2-oxo-1,2-dihydro-6-quinolinesulfonamide]
5.05	O=c1ccc2cc(S(=O)(=O)Nc3ccon3)ccc2n1[C@@H]1CC[C@@H](c2cccc(F)c2)C1 [Example 1143, 1-((1R,3R)-3-(3-fluorophenyl)cyclopentyl)-N-3-isoxazolyl-2-oxo-1,2-dihydro-6-quinolinesulfonamide, 1-((1R,3S)-3-(3-fluorophenyl)cyclopentyl)-N-3-isoxazolyl-2-oxo-1,2-dihydro-6-quinolinesulfonamide, 1-((1S,3R)-3-(3-fluorophenyl)cyclopentyl)-N-3-isoxazolyl-2-oxo-1,2-dihydro-6-quinolinesulfonamide, 1-((1S,3S)-3-(3-fluorophenyl)cyclopentyl)-N-3-isoxazolyl-2-oxo-1,2-dihydro-6-quinolinesulfonamide]

Same assay, conditions: in-vitro Nav 1.7 PX data

SMILES	pIC50
COc1cc(-c2cc(Cl)ccc2C#N)c(F)cc1-n1c(=O)ccc2cc(S(=O)(=O)Nc3ccon3)ccc21 [Example 758, 1-(5′-chloro-2′-cyano-2-fluoro-5-methoxy-4-biphenylyl)-N-3-isoxazolyl-2-oxo-1,2-dihydro-6-quinolinesulfonamide]	7.70
COc1ccc(-c2cc(F)cc(Cl)c2)cc1-n1c(=O)ccc2cc(S(=O)(=O)Nc3cccnn3)ccc21 [Example 861, 1-(3′-chloro-5′-fluoro-4-methoxy-3-biphenylyl)-2-oxo-N-3-pyridazinyl-1,2-dihydro-6-quinolinesulfonamide]	7.42
COc1cc(-c2ccc(Cl)c(C#N)c2)c(F)cc1-n1c(=O)ccc2cc(S(=O)(=O)Nc3cc(C)ncn3)ccc21 [Example 898, 1-(4′-chloro-3′-cyano-2-fluoro-5-methoxy-4-biphenylyl)-N-(6-methyl-4-pyrimidinyl)-2-oxo-1,2-dihydro-6-quinolinesulfonamide]	7.36
COc1cc(-c2cccc(C(F)(F)F)c2)ccc1-n1c(=O)ccc2cc(S(=O)(=O)Nc3ccc(C)nn3)ccc21 [Example 1138, 1-(3-methoxy-3′-(trifluoromethyl)-4-biphenylyl)-N-(6-methyl-3-pyridazinyl)-2-oxo-1,2-dihydro-6-quinolinesulfonamide]	6.84
COc1ccc(-c2cc(F)cc(Cl)c2)cc1-n1c(=O)ccc2cc(S(=O)(=O)Nc3cccnn3)ccc21 [Example 902, 1-(3′-chloro-5′-fluoro-4-methoxy-3-biphenylyl)-2-oxo-N-3-pyridazinyl-1,2-dihydro-6-quinolinesulfonamide]	7.11
COc1cc(-c2ccc(Cl)c(C)c2)c(F)cc1-n1c(=O)ccc2cc(S(=O)(=O)Nc3ncc(F)cn3)ccc21 (atropisomer, axis not shown; (P)) [Example 692, (P)-1-(4′-chloro-2-fluoro-5-methoxy-3′-methyl-4-biphenylyl)-N-(5-fluoro-2-pyrimidinyl)-2-oxo-1,2-dihydro-6-quinolinesulfonamide]	7.52

Further lines, results first:

pIC50	SMILES
6.34	COc1nc(OCC2(C)CC2)c(Cl)cc1-n1c(=O)ccc2cc(S(=O)(=O)Nc3ccon3)ccc21 [Example 822, 1-(5-chloro-2-methoxy-6-((1-methylcyclopropyl)methoxy)-3-pyridinyl)-N-3-isoxazolyl-2-oxo-1,2-dihydro-6-quinolinesulfonamide]
7.23	COc1cc(-c2cccc(C)c2)ccc1-n1c(=O)ccc2cc(S(=O)(=O)Nc3ncccn3)ccc21 [Example 1117, 1-(3-methoxy-3′-methyl-4-biphenylyl)-2-oxo-N-2-pyrimidinyl-1,2-dihydro-6-quinolinesulfonamide]
6.79	COc1nc(OCC(F)(F)C(F)(F)F)c(Cl)cc1-n1c(=O)ccc2cc(S(=O)(=O)Nc3ccon3)ccc21 [Example 832, 1-(5-chloro-2-methoxy-6-(2,2,3,3,3-pentafluoropropoxy)-3-pyridinyl)-N-3-isoxazolyl-2-oxo-1,2-dihydro-6-quinolinesulfonamide]
7.54	COc1cc(-c2ccc(F)c(F)c2)c(F)cc1-n1c(=O)ccc2cc(S(=O)(=O)Nc3ncc(F)cn3)ccc21 [Example 937, N-(5-fluoro-2-pyrimidinyl)-2-oxo-1-(2,3′,4′-trifluoro-5-methoxy-4-biphenylyl)-1,2-dihydro-6-quinolinesulfonamide]
8.05	COc1cc(-c2cnc(OC)c(Cl)c2)c(F)cc1-n1c(=O)ccc2cc(S(=O)(=O)Nc3ccon3)ccc21 [Example 740, 1-(4-(5-chloro-6-methoxy-3-pyridinyl)-5-fluoro-2-methoxyphenyl)-N-3-isoxazolyl-2-oxo-1,2-dihydro-6-quinolinesulfonamide]
7.25	COc1ccc(F)c(-c2cc(OC)c(-n3c(=O)ccc4cc(S(=O)(=O)Nc5ccon5)ccc43)cc2F)c1 [Example 732, 1-(2,2′-difluoro-5,5′-dimethoxy-4-biphenylyl)-N-3-isoxazolyl-2-oxo-1,2-dihydro-6-quinolinesulfonamide]
7.42	COc1cc(-c2cccc(C(F)(F)F)c2)ccc1-n1c(=O)ccc2cc(S(=O)(=O)Nc3ncccn3)c(F)cc21 [Example 982, 7-fluoro-1-(3-methoxy-3′-(trifluoromethyl)-4-biphenylyl)-2-oxo-N-2-pyrimidinyl-1,2-dihydro-6-quinolinesulfonamide]

Same assay, conditions: in-vitro Nav 1.7 PX data (PatchXpress)

pIC50	SMILES
7.01	COc1cc(C)ccc1-c1ccc(-n2c(=O)ccc3cc(S(=O)(=O)Nc4ccon4)ccc32)c(OC)c1 [Example 1063, 1-(2′,3-dimethoxy-4′-methyl-4-biphenylyl)-N-3-isoxazolyl-2-oxo-1,2-dihydro-6-quinolinesulfonamide]

Same assay, conditions: in-vitro PatchXpress (PX)

pIC50	SMILES
5.29	COc1cc(-c2cc(F)cc(F)c2F)c(F)cc1-n1c(=O)ccc2cc(S(=O)(=O)Nc3ccon3)ccc21 (atropisomer, axis not shown; (M)) [Example 515, (M)-N-3-isoxazolyl-2-oxo-1-(2,2′,3′,5′-tetrafluoro-5-methoxy-4-biphenylyl)-1,2-dihydro-6-quinolinesulfonamide]
5.55	COc1cc(-c2ccc(C)nc2)c(F)cc1-n1c(=O)ccc2cc(S(=O)(=O)Nc3ccon3)ccc21 [Example 500, 1-(5-fluoro-2-methoxy-4-(6-methyl-3-pyridinyl)phenyl)-N-3-isoxazolyl-2-oxo-1,2-dihydro-6-quinolinesulfonamide]
5.70	COc1cc(-c2cc(Cl)cc(C#N)c2)c(F)cc1-n1c(=O)ccc2cc(S(=O)(=O)Nc3ccon3)ccc21 (atropisomer, axis not shown; (P)) [Example 518, (P)-1-(3′-chloro-5′-cyano-2-fluoro-5-methoxy-4-biphenylyl)-N-3-isoxazolyl-2-oxo-1,2-dihydro-6-quinolinesulfonamide]
5.78	COc1nc(N2CC(F)(F)C2)c(Cl)cc1-n1c(=O)ccc2cc(S(=O)(=O)Nc3ccon3)ccc21 [Example 342, 1-(5-chloro-6-(3,3-difluoroazetidin-1-yl)-2-methoxypyridin-3-yl)-N-(isoxazol-3-yl)-2-oxo-1,2-dihydroquinoline-6-sulfonamide]
